The test system of this assay is Wnt. The assay is described as follows: Wnt reporter screening assay: SP5 promoter (TCF/LEF) firefly luciferase in SW480 cells. The format is cell-based. The settings on record: Homo sapiens; SW480 colon cancer cells with SP5 promoter luciferase reporter; 24 hours after compound addition; normalized to DMSO; read-out: Wnt inhibition, IC50. The text has this: Another screening assay for Wnt activity is described as follows. Reporter cell lines can be generated by stably transducing cells of cancer cell lines (e.g., colon cancer) with a lentiviral construct that include a wnt-responsive promoter driving expression of the firefly luciferase gene.
Lentiviral constructs can be made in which the SP5 promoter, a promoter having eight TCF/LEF binding sites derived from the SP5 promoter, is linked upstream of the firefly luciferase gene. The lentiviral constructs can also include a hygromycin resistance gene as a selectable marker. The SP5 promoter construct can be used to transduce SW480 cells, a colon cancer cell line having a mutated APC gene that generates a truncated APC protein, leading to de-regulated accumulation of β-catenin.
Cultured SW480 cells bearing a reporter construct can be distributed at approximately 10,000 cells per well into 384 well multiwell plates. Compounds from a small molecule compound library can then be added to the wells in half-log dilutions using a three micromolar top concentration. A series of control wells for each cell type receive only buffer and compound solvent. Twenty-four hours after the addition of compound, reporter activity for luciferases can be assayed, for example, by addition of the BrightGlo luminescence reagent (Promega) and the Victor3 plate reader (Perkin Elmer). Readings can be normalized to DMSO only treated cells, and normalized activities can then be used in the IC50 calculations.
(In general: In a reporter assay the amount or activity of a reporter protein is the signal.)

What is called IC50 is the concentration needed to halve the response being measured. For `CCC(CC)NC(=O)c1ccc2[nH]nc(-c3nc4ccccc4[nH]3)c2c1` [Compound 1, 3-(1H-benzo[d]imidazol-2-yl)-N-(pentan-3-yl)-1H-indazole-5-carboxamide], the IC50 was in the range of 200 to 310 nM. In the case of `O=C(NC1CCCN(S(=O)(=O)c2ccccc2F)C1)c1ccc2[nH]nc(-c3nc4ccccc4[nH]3)c2c1` (stereo not drawn) [Compound 2] it was 500 nM. On to `CN1CCC(CNC(=O)c2ccc3[nH]nc(-c4nc5ccccc5[nH]4)c3c2)C1` (stereo not drawn) [Compound 3], for which the IC50 worked out at 580 nM. The figure for `O=C(NC1Cc2ccccc2C1)c1ccc2[nH]nc(-c3nc4ccccc4[nH]3)c2c1` [Compound 4] is 600 nM; for `CN1CCCCC1CNC(=O)c1ccc2[nH]nc(-c3nc4ccccc4[nH]3)c2c1` (stereo not drawn) [Compound 5] it is 630 nM; for `CS(=O)(=O)N1CCCC(NC(=O)c2ccc3[nH]nc(-c4nc5ccccc5[nH]4)c3c2)C1` (stereo not drawn) [Compound 7] it is 800 nM. Regarding `CC(C)CC(=O)N1CC2CC1CN2C(=O)c1ccc2[nH]nc(-c3nc4ccccc4[nH]3)c2c1` (stereo not drawn) [Compound 8], the IC50 worked out at 930 nM.

`O=C(NC1CCCN(S(=O)(=O)c2cccc(F)c2)C1)c1ccc2[nH]nc(-c3nc4ccccc4[nH]3)c2c1` (stereo not drawn) [Compound 9]: the IC50 was 1000 nM. In the case of `O=C(NC1CCc2ccccc21)c1ccc2[nH]nc(-c3nc4ccccc4[nH]3)c2c1` (stereo not drawn) [Compound 10] it was 1000 nM; in that of `COc1ccc(S(=O)(=O)N2CCCC(NC(=O)c3ccc4[nH]nc(-c5nc6ccccc6[nH]5)c4c3)C2)cc1` (stereo not drawn) [Compound 11], 1300 nM; in that of `O=C(NCC1(O)CCCCC1)c1ccc2[nH]nc(-c3nc4ccccc4[nH]3)c2c1` [Compound 12], 1600 nM. The figure for `CS(=O)(=O)N1CCCC(CNC(=O)c2ccc3[nH]nc(-c4nc5ccccc5[nH]4)c3c2)C1` (stereo not drawn) [Compound 13] is 1800 nM. In the case of `Cc1ccccc1OC1CCN(C(=O)c2ccc3[nH]nc(-c4nc5ccccc5[nH]4)c3c2)C1` (stereo not drawn) [Compound 14] it was 1900 nM; in that of `Cc1ccccc1C1CCCN1C(=O)c1ccc2[nH]nc(-c3nc4ccccc4[nH]3)c2c1` (stereo not drawn) [Compound 15], 3000 nM; in that of `O=C(c1ccc2[nH]nc(-c3nc4ccccc4[nH]3)c2c1)N1CCCC1c1ccccc1` (stereo not drawn) [Compound 16], 3100 nM. As to `CC[C@H](C)[C@@H](CO)NC(=O)c1ccc2[nH]nc(-c3nc4ccccc4[nH]3)c2c1` [Compound 17], the IC50 came out at 750 nM. On to `Cc1ccccc1O[C@@H]1CCN(C(=O)c2ccc3[nH]nc(-c4nc5ccccc5[nH]4)c3c2)C1` [Compound 18], for which the IC50 was 1900 nM.

Take `O=C(NC1CCN(Cc2ccccc2)CC1)c1ccc2[nH]nc(-c3nc4ccccc4[nH]3)c2c1` [Compound 19, 3-(1H-benzo[d]imidazol-2-yl)-N-(1-benzylpiperidin-4-yl)-1H-indazole-5-carboxamide]: the IC50 is 330 to 400 nM.

In the case of `O=C(c1ccc2[nH]nc(-c3nc4ccccc4[nH]3)c2c1)N1CCCC1` [Compound 20, (3-(1H-benzo[d]imidazol-2-yl)-1H-indazol-5-yl)(pyrrolidin-1-yl)methanone], the IC50 worked out at 606 nM.

Take `Cc1ccc(CN2CCN(C(=O)c3ccc4[nH]nc(-c5nc6ccccc6[nH]5)c4c3)CC2)cc1` [Compound 21, (3-(1H-benzo[d]imidazol-2-yl)-1H-indazol-5-yl)(4-(4-methylbenzyl)piperazin-1-yl)methanone]: the IC50 came to 5300 nM. In the case of `CN1CCCN(C(=O)c2ccc3[nH]nc(-c4nc5ccccc5[nH]4)c3c2)CC1` [Compound 22, (3-(1H-benzo[d]imidazol-2-yl)-1H-indazol-5-yl)(4-methyl-1,4-diazepan-1-yl)methanone] it was 1850 nM. The figure for `O=C(c1ccc2[nH]nc(-c3nc4ccccc4[nH]3)c2c1)N1CCOCC1` [Compound 23, (3-(1H-benzo[d]imidazol-2-yl)-1H-indazol-5-yl)(morpholino) methanone] is above 10000 nM. In the case of `O=C(c1ccc2[nH]nc(-c3nc4ccccc4[nH]3)c2c1)N1CCSCC1` [Compound 24, (3-(1H-benzo[d]imidazol-2-yl)-1H-indazol-5-yl)(thiomorpholino)methanone] it was 8000 nM; in that of `CN1CCN(C(=O)c2ccc3[nH]nc(-c4nc5ccccc5[nH]4)c3c2)CC1` [Compound 25, [3-(1H-benzimidazol-2-yl)-1H-indazole-5-yl]-(4-methyl-piperazin-1-yl)-methanone], above 10000 nM. Take `O=C(c1ccc2[nH]nc(-c3nc4ccccc4[nH]3)c2c1)N1CCCCC1` [Compound 26, (3-(1H-benzo[d]imidazol-2-yl)-1H-indazol-5-yl)(piperidin-1-yl)methanone]: the 50% inhibitory concentration (IC50) is above 10000 nM. The figure for `N#Cc1ccc2[nH]nc(-c3nc4ccccc4[nH]3)c2c1` [Compound 27, 3-(1H-benzo[d]imidazol-2-yl)-1H-indazole-5-carbonitrile] is above 10000 nM; for `NC(=O)c1ccc2[nH]nc(-c3nc4ccccc4[nH]3)c2c1` [Compound 28, 3-(1H-benzo[d]imidazol-2-yl)-1H-indazole-5-carboxamide] it is 1000 nM. The figure for `O=C(O)c1ccc2[nH]nc(-c3nc4ccccc4[nH]3)c2c1` [Compound 29, 3-(1H-benzimidazol-2-yl)-1H-indazole-5-carboxylic acid] is above 10000 nM.

As for `CN(C)C(=O)c1ccc2[nH]nc(-c3nc4ccccc4[nH]3)c2c1` [Compound 30, 3-(1H-benzo[d]imidazol-2-yl)-N,N-dimethyl-1H-indazole-5-carboxamide], the 50% inhibitory concentration (IC50) came out at 2000 nM.

Turning to `CCNCc1cncc(-c2ccc3[nH]nc(-c4nc5ccccc5[nH]4)c3c2)c1C` [Compound 31, N-((5-(3-(1H-benzo[d]imidazol-2-yl)-1H-indazol-5-yl)-4-methylpyridin-3-yl)methyl)ethanamine], the IC50 came out at 243 nM. In the case of `CCNCc1cncc(-c2ccc3[nH]nc(-c4nc5c(-n6cnc(C)c6)cccc5[nH]4)c3c2)c1C` [Compound 32, N-((4-methyl-5-(3-(4-(4-methyl-1H-imidazol-1-yl)-1H-benzo[d]imidazol-2-yl)-1H-indazol-5-yl)pyridin-3-yl)methyl)ethanamine] it was 40 to 63 nM; in that of `CCNCc1cncc(-c2ccc3[nH]nc(-c4nc5ccc(COC)cc5[nH]4)c3c2)c1C` [Compound 33], 680 nM. In the case of `Cc1cn(-c2cccc3[nH]c(-c4n[nH]c5ccc(-c6cnccc6C)cc45)nc23)cn1` [Compound 34, 3-(4-(4-methyl-1H-imidazol-1-yl)-1H-benzo[d]imidazol-2-yl)-5-(4-methylpyridin-3-yl)-1H-indazole] it was 10 to 46 nM; in that of `CCNCc1cncc(-c2ccc3[nH]nc(-c4nc5c(N6CCCCC6)cccc5[nH]4)c3c2)c1C` [Compound 35, N-((4-methyl-5-(3-(4-(piperidin-1-yl)-1H-benzo[d]imidazol-2-yl)-1H-indazol-5-yl)pyridin-3-yl)methyl)ethanamine], 147 to 243 nM; in that of `CCNCc1cncc(-c2ccc3[nH]nc(-c4nc5c(N6CCCC6)cccc5[nH]4)c3c2)c1C` [Compound 36, N-((4-methyl-5-(3-(4-(pyrrolidin-1-yl)-1H-benzo[d]imidazol-2-yl)-1H-indazol-5-yl)pyridin-3-yl)methyl)ethanamine], 750 nM. In the case of `CCNCc1cncc(-c2ccc3[nH]nc(-c4nc5c(-c6cccnc6)cccc5[nH]4)c3c2)c1C` [Compound 37, N-((4-methyl-5-(3-(4-(pyridin-3-yl)-1H-benzo[d]imidazol-2-yl)-1H-indazol-5-yl)pyridin-3-yl)methyl)ethanamine] it was 200 to 240 nM.

As for `CCNCc1cncc(-c2ccc3[nH]nc(-c4nc5ccccc5[nH]4)c3c2)c1` [Compound 38, N-((5-(3-(1H-benzo[d]imidazol-2-yl)-1H-indazol-5-yl)pyridin-3-yl)methyl)ethanamine], the IC50 was 124 to 235 nM. The figure for `CCNCc1cncc(-c2ccc3[nH]nc(-c4nc5c(-c6ccccc6)cccc5[nH]4)c3c2)c1C` [Compound 39, N-((4-methyl-5-(3-(4-phenyl-1H-benzo[d]imidazol-2-yl)-1H-indazol-5-yl)pyridin-3-yl)methyl)ethanamine] is 690 to 730 nM; for `CCNCc1cncc(-c2ccc3[nH]nc(-c4nc5c(-c6cccc(C)c6)cccc5[nH]4)c3c2)c1C` [Compound 40, N-((4-methyl-5-(3-(4-m-tolyl-1H-benzo[d]imidazol-2-yl)-1H-indazol-5-yl)pyridin-3-yl)methyl)ethanamine] it is 670 to 860 nM; for `CCNCc1cncc(-c2ccc3[nH]nc(-c4nc5c(-c6ccc(C)cc6)cccc5[nH]4)c3c2)c1C` [Compound 41, N-((4-methyl-5-(3-(4-p-tolyl-1H-benzo[d]imidazol-2-yl)-1H-indazol-5-yl)pyridin-3-yl)methyl)ethanamine] it is 330 to 470 nM. In the case of `CCNCc1cncc(-c2ccc3[nH]nc(-c4nc5c(-c6ccccc6C)cccc5[nH]4)c3c2)c1C` [Compound 42, N-((4-methyl-5-(3-(4-o-tolyl-1H-benzo[d]imidazol-2-yl)-1H-indazol-5-yl)pyridin-3-yl)methyl)ethanamine] it was 2500 to 3600 nM; in that of `CCNC(=O)c1cncc(-c2ccc3[nH]nc(-c4nc5ccccc5[nH]4)c3c2)c1` [Compound 44, 5-(3-(1H-benzo[d]imidazol-2-yl)-1H-indazol-5-yl)-N-ethyl nicotinamide], 960 to 1560 nM.
